Tests used:
[1] = Pharmacokinetic profile in mice after oral gavage; type: in vivo, mouse; settings: mouse; fasted male Hilltop mice, 10 mg/kg oral gavage, plasma; read-out: Cmax
Summary of the method: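 Plasma exposure (Cmax, AUC) by non-compartmental analysis of LC-MS/MS data, orbital blood taken at 0, 0.25, 0.5, 1, 2 and 4 h, each value averaging three mice. Dosing: 10 mg/kg oral gavage to overnight-fasted male Hilltop mice (8 weeks), vehicle PEG400/CMC/Tween-80.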

Mouse STC-1 cells = test: STC-1 GLP-1 assay (GLP-1 secretion); type: cell-based; settings: Mouse STC-1 cells, GLP-1 secretion, 2 h; read-out: Mouse STC-1 HTRF GLP-1 Activity (EC50)
Summary of the method: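 Secreted active GLP-1 was measured by HTRF after overnight room-temperature incubation of supernatant with the conjugates. Supernatants came from a 2 h, 37° C. compound exposure (12-point half-log series) in HBSS with DPP-IV and protease inhibitors and 0.1% fatty acid free BSA. STC-1 cells had been seeded two days earlier in stripped-serum DMEM; EC50 reported.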

| Cmax [1] | EC50 (Mouse STC-1 cells) | SMILES |
| --- | --- | --- |
| 5.2 ng/mL | 100 to 999 nM | N#Cc1ccc(CCNC(=O)[C@@H]2CCN2c2cc(N3CCC(CCNC(=O)NCCNC(=N)N)CC3)nc(C(F)(F)F)n2)cc1 [Compound 286, (S)-N-(4-cyanophenethyl)-1-(6-(4-(2-(3-(2-guanidinoethyl)-ureido)ethyl)piperidin-1-yl)-2-(trifluoromethyl)pyrimidin-4-yl)azetidine-2-carboxamide] |
| 3.8 ng/mL | 100 to 999 nM | N#Cc1ccc(CCNC(=O)[C@@H]2CCCN2c2cc(-c3ccc(CCC(=O)NCS(=O)(=O)O)cc3)cc(C(F)(F)F)n2)cc1 [Compound 206, (S)-(3-(4-(2-(2-((4-cyanophenethyl)carbamoyl)pyrrolidin-1-yl)-6-(trifluoromethyl)pyridin-4-yl)phenyl)propanamido)methanesulfonic acid] |
| 13 ng/mL | < 100 nM | COc1cc(C(F)(F)F)ccc1CCNC(=O)[C@@H]1CCCN1c1cc(N2CCC(CCCC(=O)NCCS(=O)(=O)O)CC2)nc(C(F)(F)F)n1 [Compound 57, (S)-2-(4-(1-(6-(2-((2-methoxy-4-(trifluoromethyl)phenethyl)carbamoyl)-pyrrolidin-1-yl)-2-(trifluoromethyl)-pyrimidin-4-yl)piperidin-4-yl)butanamido)ethanesulfonic acid] |
| 105 ng/mL | < 100 nM | N#Cc1ccc(CCNC(=O)[C@@H]2CCCN2c2cc(N3CCC(CCNC(=O)NCP(=O)(O)O)CC3)nc(C(F)(F)F)n2)cc1 [Compound 372, (S)-((3-(2-(1-(6-(2-((4-cyanophenethyl)carbamoyl)pyrrolidin-1-yl)-2-(trifluoromethyl)pyrimidin-4-yl)piperidin-4-yl)ethyl)ureido)methyl)phosphonic acid] |
| 3.4 ng/mL | < 100 nM | N#Cc1ccc(CCNC(=O)[C@@H]2CCN2c2cc(N3CCC(CCCC(=O)NCCS(=O)(=O)O)CC3)nc(C(F)(F)F)n2)cc1 [Compound 249, (S)-2-(4-(1-(6-(2-((4-cyanophenethyl)carbamoyl)azetidin-1-yl)-2-(trifluoromethyl)pyrimidin-4-yl)piperidin-4-yl)butanamido)ethanesulfonic acid] |
| 1.5 ng/mL | 100 to 999 nM | N#Cc1ccc(CCNC(=O)[C@@H]2CCCN2c2cc(N3CCC(CCNc4c(NCCS(=O)(=O)O)c(=O)c4=O)CC3)nc(C(F)(F)F)n2)cc1 [Compound 367, (S)-2-((2-((2-(1-(6-(2-((4-cyanophenethyl)carbamoyl)pyrrolidin-1-yl)-2-(trifluoromethyl)pyrimidin-4-yl)piperidin-4-yl)ethyl)amino)-3,4-dioxocyclobut-1-en-1-yl)amino)ethanesulfonic acid] |
| 301 ng/mL | < 100 nM | N#C/N=C(\NCCC(=O)O)NCCC1CCN(c2cc(N3CC[C@H]3C(=O)NCCc3ccc(C#N)cc3)nc(C(F)(F)F)n2)CC1 [Compound 351, (S,Z)-3-(2-cyano-3-(2-(1-(6-(2-((4-cyanophenethyl)carbamoyl)azetidin-1-yl)-2-(trifluoromethyl)pyrimidin-4-yl)piperidin-4-yl)ethyl)guanidino)propanoic acid] |
| 1 ng/mL | < 100 nM | N#Cc1ccc(CCNC(=O)[C@@H]2CCCN2c2cc(N3CCC(CCCC(=O)NCCS(=O)(=O)O)CC3)cc(C(F)(F)F)n2)cc1 [Compound 199, (S)-2-(4-(1-(2-(2-((4-cyanophenethyl)carbamoyl)pyrrolidin-1-yl)-6-(trifluoromethyl)pyridin-4-yl)piperidin-4-yl)butanamido)ethanesulfonic acid] |
| 48 ng/mL | < 100 nM | O=C(CCC1CCN(c2cc(N3CC[C@H]3C(=O)NCCc3ccc(C(F)(F)F)cc3)nc(C(F)(F)F)n2)CC1)NCS(=O)(=O)O [Compound 253, (S)-(3-(1-(2-(trifluoromethyl)-6-(2-((4-(trifluoromethyl)phenethyl)-carbamoyl)azetidin-1-yl)pyrimidin-4-yl)piperidin-4-yl)propanamido)-methanesulfonic acid] |
| 30 ng/mL | 100 to 999 nM | N#Cc1ccc(CCNC(=O)[C@@H]2CCCN(c3cc(N4CCC(CCNC(=O)NCCC(=O)O)CC4)nc(C(F)(F)F)n3)C2)cc1 [Compound 347, (R)-3-(3-(2-(1-(6-(3-((4-cyanophenethyl)carbamoyl)piperidin-1-yl)-2-(trifluoromethyl)pyrimidin-4-yl)piperidin-4-yl)ethyl)ureido)propanoic acid] |
| 53 ng/mL | < 100 nM | COc1cc(C(F)(F)F)ccc1CCNC(=O)[C@@H]1CCN1c1cc(N2CCC(CCC(=O)O)CC2)nc(C(F)(F)F)n1 [Compound 239, (S)-3-(1-(6-(2-((2-methoxy-4-(trifluoromethyl)phenethyl)carbamoyl)azetidin-1-yl)-2-(trifluoromethyl)pyrimidin-4-yl)piperidin-4-yl)propanoic acid] |
| 338 ng/mL | 100 to 999 nM | CN(C)CCC1CCN(c2cc(N3CCC[C@H]3C(=O)NCCc3ccc(C(F)(F)F)cc3)nc(C(F)(F)F)n2)CC1 [Compound 5] |
| 3.2 ng/mL | 100 to 999 nM | N#Cc1ccc(CCNC(=O)[C@@H]2CCN2c2cc(N3CCC(CCCC(=O)NC[C@@H](O)[C@H](O)[C@@H](O)[C@@H](O)CO)CC3)nc(C(F)(F)F)n2)cc1 [Compound 260, (S)—N-(4-cyanophenethyl)-1-(6-(4-(4-oxo-4-(((2R,3S,4S,5S)-2,3,4,5,6-pentahydroxyhexyl)amino)butyl)piperidin-1-yl)-2-(trifluoromethyl)pyrimidin-4-yl)azetidine-2-carboxamide] |
| 11 ng/mL | 100 to 999 nM | N#Cc1ccc(CCNC(=O)[C@@H]2CCN2c2cc(N3CCC(CCNc4c(NCCS(=O)(=O)O)c(=O)c4=O)CC3)nc(C(F)(F)F)n2)cc1 [Compound 297, (S)-2-((2-((2-(1-(6-(2-((4-cyanophenethyl)carbamoyl)azetidin-1-yl)-2-(trifluoromethyl)pyrimidin-4-yl)piperidin-4-yl)ethyl)amino)-3,4-dioxocyclobut-1-en-1-yl)amino)ethanesulfonic acid] |
| 1.4 ng/mL | < 100 nM | N#Cc1ccc(CCNC(=O)[C@@H]2CCCN2c2cc(N3CCC(CCNC(=O)[C@@H](N)CS(=O)(=O)O)CC3)nc(C(F)(F)F)n2)cc1 [Compound 123, (R)-2-amino-3-((2-(1-(6-((S)-2-((4-cyanophenethyl)carbamoyl)pyrrolidin-1-yl)-2-(trifluoromethyl)pyrimidin-4-yl)piperidin-4-yl)ethyl)amino)-3-oxopropane-1-sulfonic acid] |
| < 1 ng/mL | < 100 nM | N#Cc1ccc(CCNC(=O)[C@@H]2CCN2c2cc(N3CCC(CCNC(=O)NCCS(=O)(=O)O)CC3)nc(C(F)(F)F)n2)cc1 [Compound 271, (S)-2-(3-(2-(1-(6-(2-((4-cyanophenethyl)carbamoyl)azetidin-1-yl)-2-(trifluoromethyl)pyrimidin-4-yl)piperidin-4-yl)ethyl)ureido)-ethanesulfonic acid] |
| 3.2 ng/mL | 100 to 999 nM | N#Cc1ccc(CCNC(=O)[C@@H]2CCCN2c2cc(N3CCC(CCCC(=O)NCCC(=O)NC(CO)(CO)CO)CC3)nc(C(F)(F)F)n2)cc1 [Compound 109, (S)—N-(4-cyanophenethyl)-1-(6-(4-(4-((3-((1,3-dihydroxy-2-(hydroxymethyl)propan-2-yl)amino)-3-oxopropyl)amino)-4-oxobutyl)piperidin-1-yl)-2-(trifluoromethyl)-pyrimidin-4-yl)pyrrolidine-2-carboxamide] |
